pIC50: −log10 of the molar value. Where two headings read alike, the source gives them in different places.
Tests used:
[1] = test system: Septic Shock, Lipopolysaccharide; test: Septic Shock, Lipopolysaccharide plus galactosamine in mice; assay type: in vivo, C57/BL mice
Experimental: Groups of 4 or 6 C57/BL mice weighing 18–20g were used. […] The blank control group was only applied 10% cremophor/10% ethanol IP and without LPS challenge. Mortality is recorded every 12 hours after challenge over a 3-day period. Protection of mortality by 50 percent or more (≧50%) indicates significant activity.

[2] = test system: purified rat T cells; test: Concanavalin A activated T-cell proliferation assay ([3H] thymidine uptake); assay type: cell-based; details: 96 h, @ 1 mM
Experimental: Compounds of Formula I (above), based on an ethyl dimethylaminopropylurea (1) parent structure, have been discovered as active agents against a modified Concanavalin A activated T-cell proliferation assay using purified rat T-cells. These cells were incubated for 4 days and pulsed with [^3H] thymidine for the last 16 hrs of incubation. [^3H] Thymidine uptake was measured as the mean counts per minute (cpm) of duplicate experimental cultures. The compounds of the present invention were discovered by screening a compound library. (directed analogs of parent compound 1) using an assay designed to identify inhibitors of Concanavalin A stimulated T-cell proliferation. Normal dermal fibroblasts and kidney epithelial cell toxicity assays were run on active compounds to eliminate non-selective cytotoxic compounds.

[3] = test system: IL-1β; test: Cellular assay: Mediator Release, IL-1β; assay type: cell-based; details: IL-1β release
[4] = test system: IL-10; test: Cellular assay: Mediator Release, IL-10; assay type: cell-based; details: IL-10 release
[5] = test system: IL-5; test: Cellular assay: Mediator Release, IL-5; assay type: cell-based; details: IL-5 release
[6] = test system: IL-6; test: Cellular assay: Mediator Release, IL-6; assay type: cell-based; details: IL-6 release
[7] = test system: Interferon-γ; test: Cellular assay: Mediator Release, Interferon-γ; assay type: cell-based
[8] = test system: TNF-α; test: Cellular assay: Mediator Release, TNF-α; assay type: cell-based
[9] = test system: NF-κB; test: Cellular assay: Transcription Response, NF-κB; assay type: cell-based
[10] = test system: Distal colitis induced by DNBS; test: Inflammatory Bowel Disease: DNBS-induced distal colitis in rats; assay type: in vivo; details: rat
Experimental: CM Hogaboam et al., Eur. J. Pharmacol.; 309; 261 (1996) Groups of 3 derived-male, overnight-fasted rats weighing 150±10 g are used. Distal colitis is induced by intra-colonic instillation of 0.5 ml/rat of DNBS (2,4-dinitrobenzene sulfonic acid, 60 mg/ml in ethanol 30%) after which air (2 ml) is gently injected through the cannula to ensure that the solution remains in the colon. […] The animals are sacrificed 24 hours after the final dose of test compound administration and each colon is removed and weighed.

[11] = test system: Autoimmune Encephalomyelitis (EAE); test: Autoimmune Encephalomyelitis (EAE) model, PLP 139-151 immunized mice; assay type: in vivo, SJL/J mice
[12] = Table 2, read-out: Thymidine Uptake (% Reduction @ 1 mM)
[13] = Table 1, read-out: Thymidine Uptake (% Reduction @ 1 mM)
[14] = Table 3, read-out: Thymidine Uptake (% Reduction @ 1 mM)
[15] = 25 mg/kg daily day 1 to 16, FIG. 1

## CC(=O)OCC(=O)[C@@]1(O)[C@H](C)C[C@H]2[C@@H]3CCC4=CC(=O)C=C[C@]4(C)[C@@]3(F)[C@@H](O)C[C@@]21C [Dexamethasone-21-acetate, reference compound]
[1]; 1 mg/kg PO dose
  Inhibition (protection of mortality): 100%
[1]; 1 mg/kg PO dose, N 4, 3-day period
  Total Deaths: 0

## CCNC(=O)NCCCN1CCN(c2ncc(C(F)(F)F)cc2Cl)CC1 [Compound 32]
[2]; [12]
  inhibition at 1000 µM: 27%

## CCNC(=O)NCCCN1CCc2ccccc2C1Cc1ccccc1 (stereo not shown) [Compound 34]
[2]; [12]
  inhibition at 1000 µM: 12%

## CCNC(=O)NCC1CCCO1 (stereo not shown) [Compound 3]
[2]; [13]
  inhibition at 1000 µM: 26%

## CCNC(=O)NCCCN1CCN(c2cc(Cl)ccc2C)CC1 [Compound 36]
[2]; [12]
  inhibition at 1000 µM: 18%

## CCNC(=O)NN1CCCC1 [Compound 9]
[2]; [13]
  inhibition at 1000 µM: 16%

## CCNC(=O)Nc1ncnc2[nH]ncc12 [Compound 21]
[2]; [13]
  inhibition at 1000 µM: 95%

## CCNC(=O)Nc1nc2cc(C)c(C)cc2[nH]1 [Compound 19, 1-(5,6-dimethyl-1H-benzoimidazol-2-yl)-3-ethyl urea]
[2]; [13]
  inhibition at 1000 µM: 77%

## CCNC(=O)NCc1ccco1 [Compound 2]
[2]; [13]
  inhibition at 1000 µM: 16%

## C=CCNC(=O)NCC [Compound 24]
[2]; [13]
  inhibition at 1000 µM: 18%

## CCNC(=O)NCCCN(CCO)Cc1ccccc1 [Compound 30]
[2]; [12]
  inhibition at 1000 µM: 12%

## CCNC(=O)Nc1nc2cc(C)c(C)cc2[nH]1 [Compound 56, 1-(5,6-dimethyl-1H-benzoimidazol-2-yl)-3-ethyl urea]
[3]; Conc. 10 mM
  inhibition at 10000 µM: 91%
[3]
  pIC50: 5.69
[4]; Conc. 10 mM
  inhibition at 10000 µM: 63%
[4]
  pIC50: 5.24
[5]; Conc. 10 mM
  inhibition at 10000 µM: 54%
[5]
  pIC50: 5.03
[6]; Conc. 10 mM
  inhibition at 10000 µM: 82%
[6]
  pIC50: 5.41
[7]
  pIC50: 5.19
[7]; Conc. 10 mM
  inhibition at 10000 µM: 57%
[8]
  pIC50: 5.71
[8]; Conc. 10 mM
  inhibition at 10000 µM: 89%
[9]
  pIC50: 5.02
[9]; Conc. 10 mM
  inhibition at 10000 µM: 52%
[10]; PO 5 mg/kg × 7
  Ave. (colon to 100 g body weight ratio): 0.678
  Inhibition (of net increase of colon to 100 g body weight ratio, relative to vehicle with DNBS): 12%
  Net Inc. (net increase of colon to 100 g body weight ratio): 0.381
[10]; PO 25 mg/kg
  response in IBD model at the highest dose: statistically significant response
[10]; PO 25 mg/kg × 7
  Ave. (colon to 100 g body weight ratio): 0.585
  Inhibition (of net increase of colon to 100 g body weight ratio, relative to vehicle with DNBS): 34%
  Net Inc. (net increase of colon to 100 g body weight ratio): 0.288
[10]; PO 25 and 5 mg/kg
  activity in IBD model: dose responsive activity
[1]; IP 5 mg/kg
  Inhibition (protection of mortality): 17%
[1]; IP 5 mg/kg, N 6, 3-day period
  Total Deaths: 5
[1]; IP 25 mg/kg
  Inhibition (protection of mortality): 50%
  response in septic shock model at the highest dose: statistically significant response
[1]; IP 25 mg/kg, N 6, 3-day period
  Total Deaths: 3
[1]; IP 25 and 5 mg/kg
  activity in septic shock model: dose responsive activity
[11]; 24 mg/kg daily day 1 to 16, FIG. 2
  effect on disease onset (ADSS): significant effect

## CN(C)CCCNC(=O)NCC12CCC3CC(CC1C3)C2 (stereo not shown) [Compound 40]
[2]; [14]
  inhibition at 1000 µM: 20%

## COCCCNC(=O)NCCCN(C)C [Compound 53]
[2]; [14]
  inhibition at 1000 µM: 26%

## CCNC(=O)NCCCN1CCN(c2cc(C)ccc2C)CC1 [Compound 39]
[2]; [12]
  inhibition at 1000 µM: 23%

## CCNC(=O)NCCCN1CC(C)OC(C)C1 (stereo not shown) [Compound 28]
[2]; [12]
  inhibition at 1000 µM: 13%

## CCNC(=O)NCC(c1ccccc1)c1ccccc1 [Compound 4]
[2]; [13]
  inhibition at 1000 µM: 26%

## CCNC(=O)Nc1c(F)c(F)c(C#N)c(F)c1F [Compound 15]
[2]; [13]
  inhibition at 1000 µM: 26%

## COc1ccc(CNC(=O)NCCCN(C)C)c(OC)c1 [Compound 47]
[2]; [14]
  inhibition at 1000 µM: 20%

## CCNC(=O)Nc1cccc(OC(F)(F)F)c1 [Compound 10]
[2]; [13]
  inhibition at 1000 µM: 30%

## CN(C)CCCNC(=O)Nc1ncc([N+](=O)[O-])s1 [Compound 50]
[2]; [14]
  inhibition at 1000 µM: 22%

## CCNC(=O)Nc1cccc(S(N)(=O)=O)c1 [Compound 14]
[2]; [13]
  inhibition at 1000 µM: 18%

## CN(C)CCCNC(=O)NCc1ccccc1Cl [Compound 46]
[2]; [14]
  inhibition at 1000 µM: 21%

## CCNC(=O)NCCCN1CCN(C/C=C\c2ccccc2)CC1 [Compound 37]
[2]; [12]
  inhibition at 1000 µM: 23%

## O=C(O)c1cc(/N=N/c2ccc(S(=O)(=O)Nc3ccccn3)cc2)ccc1O [Sulfasalazine, reference compound]
[10]; PO 300 mg/kg × 7
  Ave. (colon to 100 g body weight ratio): 0.551
[10]; PO × 7
  Inhibition (of net increase of colon to 100 g body weight ratio, relative to vehicle with DNBS): 41%
  Net Inc. (net increase of colon to 100 g body weight ratio): 0.254

## CCNC(=O)NCCCN1CCC(Cc2ccccc2)CC1 [Compound 33]
[2]; [12]
  inhibition at 1000 µM: 17%

## CCNC(=O)Nc1cc[nH]n1 [Compound 11]
[2]; [13]
  inhibition at 1000 µM: 35%

## CCNC(=O)NCCCN1CCC(C(=O)c2ccc(Cl)cc2)CC1 [Compound 35]
[2]; [12]
  inhibition at 1000 µM: 55%

## COc1ccccc1CNC(=O)NCCCN(C)C [Compound 43]
[2]; [14]
  inhibition at 1000 µM: 24%

## CN(C)CCCNC(=O)Nc1ncnc2[nH]ncc12 [Compound 51]
[2]; [14]
  inhibition at 1000 µM: 86%

## CN(C)CCCNC(=O)Nc1nnn[nH]1 [Compound 52]
[2]; [14]
  inhibition at 1000 µM: 14%

## CCNC(=O)Nc1nc2ccccc2s1 [Compound 8]
[2]; [13]
  inhibition at 1000 µM: 22%

## CCNC(=O)NCCCN1CCN(c2ccccc2)C(C)C1 (stereo not shown) [Compound 38]
[2]; [12]
  inhibition at 1000 µM: 13%

## CCNC(=O)NCCN1CCCCC1 [Compound 6]
[2]; [13]
  inhibition at 1000 µM: 33%

## CN(C)CCCNC(=O)NC1Cc2ccccc2C1 [Compound 45]
[2]; [14]
  inhibition at 1000 µM: 20%

## CCNC(=O)NCCCN1CCSCC1 [Compound 26]
[2]; [12]
  inhibition at 1000 µM: 16%

## CCNC(=O)NOC(C)(C)C [Compound 18]
[2]; [13]
  inhibition at 1000 µM: 25%

## CN(C)CCCNC(=O)NCc1csc2ccccc12 [Compound 54]
[2]; [14]
  inhibition at 1000 µM: 16%

## CCNC(=O)NCCCN1CCN(c2cccc(C)c2C)CC1 [Compound 31, 1-{3′-[4-(2,3-xylyl)-piperazin-1-yl]-propyl}-3-ethyl urea]
[2]; [12]
  inhibition at 1000 µM: 21%

## CCCN(CCCNC(=O)NCC)CC1CC1 [Compound 29]
[2]; [12]
  inhibition at 1000 µM: 23%

## CN(C)CCCNC(=O)NCCc1cccc(Cl)c1 [Compound 48]
[2]; [14]
  inhibition at 1000 µM: 26%

## CCNC(=O)Nc1ccc(C(N)=O)cc1 [Compound 16]
[2]; [13]
  inhibition at 1000 µM: 27%

## CN(C)CCCNC(=O)NCCc1cccs1 [Compound 55]
[2]; [14]
  inhibition at 1000 µM: 17%

## CN(C)CCCNC(=O)Nc1nccc2ccccc12 [Compound 49]
[2]; [14]
  inhibition at 1000 µM: 36%

## CCNC(=O)Nc1cccc2nsnc12 [Compound 7]
[2]; [13]
  inhibition at 1000 µM: 25%

## CCNC(=O)NC1CCN(C(=O)OCC)CC1 [Compound 13]
[2]; [13]
  inhibition at 1000 µM: 35%

## CN(C)CCCNC(=O)NCCC(c1ccccc1)c1ccccc1 [Compound 44]
[2]; [14]
  inhibition at 1000 µM: 21%

## CCNC(=O)NCCCN1CCN(c2cccc(C)c2C)CC1 [Compound 57, 1-{3′-[4-(2,3-xylyl)-piperazin-1-yl]-propyl}-3-ethyl urea]
[11]; [15]
  effect on disease onset (ADSS): had an effect on disease onset
  effect on maximum severity (ADSS): not on maximum severity

## CCCNCCCNC(=O)NCC [Compound 17]
[2]; [13]
  inhibition at 1000 µM: 25%

## CN(C)CCCNC(=O)NCCCCO [Compound 41]
[2]; [14]
  inhibition at 1000 µM: 12%

## CCNC(=O)Nc1cnccn1 [Compound 20]
[2]; [13]
  inhibition at 1000 µM: 55%

## CCNC(=O)NC(C(=O)OCC)C(=O)OCC [Compound 23]
[2]; [13]
  inhibition at 1000 µM: 12%

## CCNC(=O)NCCc1cccc(Cl)c1 [Compound 5]
[2]; [13]
  inhibition at 1000 µM: 24%

## CCNC(=O)Nn1cnnc1 [Compound 22]
[2]; [13]
  inhibition at 1000 µM: 19%

## CCNC(=O)NC(C)(C)CC(C)=O [Compound 12]
[2]; [13]
  inhibition at 1000 µM: 35%

## CCNC(=O)NCC(C)(C)C [Compound 25]
[2]; [13]
  inhibition at 1000 µM: 60%
